Results as given in patent publication US6100237A, “Use of des-Aspartate-angiotensin I as an agent for the treatment and prevention of neointima formation, restenosis, and arteriosclerosis” (National University of Singapore, priority 1997, dated 2000).
No end group written: not given here.

Tested on: spontaneously hypertensive rat (SHR)
Experiment: Chronic development of arteriosclerosis (abdominal aorta morphometry, tail cuff blood pressure), chronic oral administration, SHR
Type: in vivo, spontaneously hypertensive rats (SHR)
Details: 0.9 mg/kg/day oral; weight taken at 12, 27 and 47 weeks old (data not shown)
Experimental: Five weeks old WKY and SHR were housed four to a cage. Four SHR and four WKY were orally administered 0.9 mg/kg/day of des-Aspartate-angiotensin I in 0.5 ml of saline daily for 47 weeks. Four SHR and another four WKY served as control animals and were administered 0.5 ml saline solution daily for 47 weeks. The weight of the animals were determined weekly till 12 weeks old, fortnightly till 27 weeks old and monthly till 47 weeks old. The dose of des-Aspartate-angiotensin I was adjusted to match the increase in weight as the animals grew. The dose of 0.9 mg/kg/day was calculated based on the maximum effective oral anti-cardiac hypertrophic dose (250 nmole per rat of average weight of 325 g) in the previous patent.
The blood pressure of the animals was determined by the tail cuff method on the 46th week of treatment. On the 47th week, animals were anaesthetized with chloral hydrate and a 3-cm section (measured from the left renal artery) of the abdominal aorta was removed and fixed in 4% paraformaldehyde and 1% glutaraldehyde. The aorta was processed for paraffin embedment. 10-μ thick sections were prepared and stained with toluidine blue. Fifty such sections, cut from the distal end of the artery, were used for quantitation. The area of the medial smooth muscle cells was quantitated morphometrically as described above. The area was converted to volume by multiplying by 10μ.

In the case of RVYIHPFHL [des-Aspartate-angiotensin I], the animal weight is reported as “no significant effect”.
